Results from patent publication US20060117411A1, “Enhancing plant pathogen resistance via increasing BiP levels” (priority 1998, published 2006).

Columns and labels:
[1] = system: β-1,3-glucanase gene expression; experiment: Leaf treatment of tobacco plants, Northern blot of β-1,3-glucanase transcripts in local and systemic leaves; format: in vivo, Nicotiana tabacum; conditions: 3 and 8 hours of incubation
Description: We have shown that treatment of tobacco plants with cell wall-degrading enzymes (CDE) leads to the rapid induction of β-1,3-glucanase and other PR genes, both locally and systemically (Vidal et al, 1997). […] We used a commercial preparation of fungal CDEs instead of custom made Erwinia-derived hydrolases to increase reproducibility. One leaf from each tobacco plant was treated with CDEs and the induction of BiP gene expression was analysed in the treated (local) and untreated (systemic) leaves from the same plant. […] This induction was observed locally as well systemically with the same timing and intensity. β-1,3-glucanase transcript accumulation is detectable only after 4 hours of incubation and reaches its plateau after 8 hours as described previously (Vidal et al, 1997). Whereas BiP induction is transient, β-1,3-glucanase mRNA levels continue to be high after prolonged incubation times (24-48 hours). […] The signal involved in the systemic response of BiP gene expression must therefore be transported very rapidly from the local leaf to the distal leaves.
Even though BiP induction occurs prior to β-1,3 glucanase induction, we cannot rule out that other, as yet unidentified defence related proteins are induced more rapidly and perhaps before BiP in our experimental system. […]

[2] = system: tobacco protoplasts (GUS, cell viability); experiment: Transient expression in tobacco protoplasts (pNL200), GUS internal marker; format: cell-based, Nicotiana tabacum; conditions: tunicamycin 20 μg/mL, 20 hr
Description: We have established a model system based on the comparison of protein biosynthesis in the cytosol and on the rough ER using transient expression. A plasmid was constructed (pNL200, FIG. 12A) containing two genes, one encoding the secreted barley α-amylase (Rogers, 1985) and the other encoding the cytosolic marker β-glucuronidase (GUS; Jefferson et al., 1987). α-Amylase was used to measure secretory protein biosynthesis, and GUS was used to control for transfection efficiency and overall cell viability. We compared cells under normal culture conditions with cells subjected to ER stress by treatment with tunicamycin. […]
Tobacco leaf protoplasts (from transformed or untransformed plants) were prepared, and electroporation experiments were performed as previously described (Denecke and Vitale, 1995), with minor modifications to the electroporation conditions. […] After 24 or 48 hr, the protoplasts were analysed by enzymatic assay or by protein gel blotting. […]
GUS activity in protoplasts was measured with a […] assay. six mililiters of floated protoplasts were diluted in TEX buffer (B5 salts, 250 mg/L NH4NO3, 750 mg/L CaCl2, 500 mg/L MES, and 0.4 M sucrose, pH 5.7) and were spun down by the addition of 20 mL of 250 mM NaCl. […] The absorbance was measured at 415 nm against a blank containing stop buffer that had been incubated at 37° C. for the duration of the reaction time.

In the case of tunicamycin, the “expression of β-1,3-glucanase, local and systemic” value [1] is reported as “neither locally nor systemically induced” and the “cell viability monitored with the internal marker GUS” value [2] is reported as “does not affect cell viability”.
